The target in this assay is T1, recombinant human deoxyuridine nucleotidohydrolase (dUTPase) (Homo sapiens, UniProt P33316).
T1 construct: made in house
T1 sequence (P33316 1-164 isoform P33316-2): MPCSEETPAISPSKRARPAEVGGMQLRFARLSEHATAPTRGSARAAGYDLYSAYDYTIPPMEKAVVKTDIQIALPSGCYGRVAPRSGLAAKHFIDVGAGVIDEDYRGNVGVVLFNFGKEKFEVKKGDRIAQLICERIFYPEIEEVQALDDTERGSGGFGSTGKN
Briefly: fluorescence-based dUTPase inhibition assay (DNA polymerase-based dUTP detection). As to conditions: mean across three concentrations, typically 100, 50 and 25 μmol/L, compared to the in-run positive control. It is filed as biochemical. The source says: Recombinant human deoxyuridine nucleotidohydrolase (dUTPase) is expressed and purified as described in Ladner R D, Carr S A, Huddleston M J, McNulty D E, Caradonna S J. J Biol Chem. 1996 Mar. 29; 271(13):7752-7. All drugs stocks are aliquoted and diluted as appropriate prior to use. The oligonucelotide primer, templates and fluorophore- and quencher-labeled detection probes are synthesized by Integrated DNA Technologies (Coralville, Iowa), subjected to polyacrylamide gel electrophoresis purification and reconstituted in Omnipur sterile nuclease-free water (EMD Chemicals USA, Gibbstown N.J.) at a stock concentration of 100 μmol/L. The two non-emissive (dark) quenching molecules incorporated into the detection probes include the Iowa black fluorescein quencher (IBFQ; absorption max 531 nm) and ZEN (non-abbreviation; absorption max 532 nm). The fluorescent label utilized is 6-FAM (5′-carboxyfluorescein; excitation max.=494 nm, emission max.=520 nm). Probes are further diluted to a working stock of 10 μmol/L and aliquoted to avoid repeated freeze/thaw cycles. AmpliTaq Gold DNA Polymerase, GeneAmp 10×PCR Buffer 2, MgCl2 and MicroAmp Optical 96-well Reaction Plates are purchased from Applied Biosystems (Carlsbad, Calif.). dNTPs are purchased individually at stock concentrations of 100 mmol/L from New England Biolabs at HPLC-certified >99% purity (Ipswich, Mass.).
Reaction mixtures contained primer, probe and template at an equimolar final concentration of 0.4 μmol/L. Magnesium chloride (MgCl2) is included at a final concentration of 2 mmol/L. Non-limiting dNTPs are included in the reaction mix in excess at a final concentration of 100 μmol/L (dUTP/dTTP is excluded). AmpliTaq Gold DNA polymerase is added at 0.875 U/reaction, 2.5 μl of 10×PCR buffer 2 added and nuclease-free ddH2O added to a final reaction volume of 25 μl. For dUTP inhibition analysis, the volume of ddH2O is further modified to accommodate an additional 1 μl of dUTPase (10 ng/μl) and 1 μl of inhibitor or DMSO control. Thermal profiling and fluorescence detection is performed using a customized thermal program on board a Roche Lightcycler LC480 Instrument II. For analysis of dNTPs, the thermal profile consisted of an 8 min 37° C. step followed by a 10 min 95° C. step to ‘hot-start’ the Taq polymerase and a primer extension time of up to 30 min at 60° C. Raw fluorescence spectra for 6-FAM is measured at specified time intervals to follow assay progression on board a Roche LightCycler 480 Software Version 1.5 and exported and analyzed in Microsoft Excel (Microsoft, Redmond Wash.) and Prism (GraphPad Software, La Jolla Calif.). Fluorescence values for blank reactions (limiting dNTP omitted) are subtracted to give normalized fluorescence units (NFU) to account for background fluorescence.
Test compounds were screened in a fluorescence-based assay. The assay employed a DNA polymerase-based approach utilizing an oligonucleotide template with 3 distinct regions: a 3′ primer binding region, a mid-template dUTP/thymidine triphosphate (TTP) detection region and a 5′ 6-[…] (FAM)-labeled probe binding region that incorporates a black hole quenching moiety. During the reaction, the probe and primer hybridize to the oligonucleotide template to form the template:primer:probe complex. When Taq polymerase binds to the primer in the TPP complex and dUTP is present, successful extension of the nascent strand occurs and the inherent 5′ to 3′ exonuclease activity of Taq polymerase cleaves and displaces the 6-FAM-labeled probe in a 5′ to 3′ direction, releasing the 6-FAM fluorophore from its proximity to the […]. This displacement effectively disrupts the Förster resonance energy transfer (FRET) and the resulting fluorescence detected upon excitation is directly proportional to the amount of the dUTP available in the assay for incorporation. […]

Regarding `CC(C)(NS(=O)(=O)CC/C=C/CC1CCC(=O)NC1=O)c1ccc(F)c(OCC2CC2)c1` (single isomer, unassigned) [Example 79 trans isomer 1, (E)-N-(2-(3-(cyclopropylmethoxy)-4-fluorophenyl)propan-2-yl)-5-(2,6-dioxopiperidin-3-yl)pent-3-ene-1-sulfonamide], the “% relative inhibition vs. positive control” value (listed as 79 trans isomer 1) turned out to be 22%.
Turning to `CC(C)(NS(=O)(=O)CC/C=C/CC1CCC(=O)NC1=O)c1ccc(F)c(OCC2CC2)c1` (single isomer, unassigned) [Example 79 trans isomer 2, (E)-N-(2-(3-(cyclopropylmethoxy)-4-fluorophenyl)propan-2-yl)-5-(2,6-dioxopiperidin-3-yl)pent-3-ene-1-sulfonamide], the “% relative inhibition vs. positive control” value (listed as 79 trans isomer 2) worked out at 51%.
`CC(C)(NS(=O)(=O)CCCCCC1CCC(=O)NC1=O)c1ccc(F)c(OCC2CC2)c1` (single isomer, unassigned) [Example 81 isomer 1, N-(2-(3-(cyclopropylmethoxy)-4-fluorophenyl)propan-2-yl)-5-(2,6-dioxopiperidin-3-yl)pentane-1-sulfonamide]: the “% relative inhibition vs. positive control” value (listed as 81 isomer 1) was 16%.
Turning to `CC(C)(NS(=O)(=O)CCCCCC1CCC(=O)NC1=O)c1ccc(F)c(OCC2CC2)c1` (single isomer, unassigned) [Example 81 isomer 2, N-(2-(3-(cyclopropylmethoxy)-4-fluorophenyl)propan-2-yl)-5-(2,6-dioxopiperidin-3-yl)pentane-1-sulfonamide], where the note is “listed as 81 isomer 2”, the “% relative inhibition vs. positive control” value stood at 41%.
Turning to `CC[C@@H](NS(=O)(=O)CC/C=C/CC1CCC(=O)NC1=O)c1ccc(F)c(OCC2CC2)c1` (single isomer, unassigned) [Example 88 trans isomer 1], for the setting “listed as 88 trans isomer 1”, the “% relative inhibition vs. positive control” value was 10%.
For the compound `CC[C@@H](NS(=O)(=O)CC/C=C/CC1CCC(=O)NC1=O)c1ccc(F)c(OCC2CC2)c1` (single isomer, unassigned) [Example 88 trans isomer 2], the “% relative inhibition vs. positive control” value (listed as 88 trans isomer 2) turned out to be 167%.
As for `CC(C)(NS(=O)(=O)CC/C=C/CC1CCC(=O)NC1=O)c1ccc(F)c(OCC2CC2)c1` (stereo not shown) [Example 79, (E)-N-(2-(3-(cyclopropylmethoxy)-4-fluorophenyl)propan-2-yl)-5-(2,6-dioxopiperidin-3-yl)pent-3-ene-1-sulfonamide], the “% relative inhibition vs. positive control” value worked out at 70%.
As to `CC(C)(NS(=O)(=O)CCCCCC1CCC(=O)NC1=O)c1ccc(F)c(OCC2CC2)c1` (stereo not shown) [Example 81, N-(2-(3-(cyclopropylmethoxy)-4-fluorophenyl)propan-2-yl)-5-(2,6-dioxopiperidin-3-yl)pentane-1-sulfonamide], the “% relative inhibition vs. positive control” value turned out to be 49%.
Same read-out and setting: with `CC(C)(NS(=O)(=O)C/C=C/CC1CCC(=O)NC1=O)c1ccc(F)c(OCC2CC2)c1` (stereo not shown) [Example 82, (E)-N-(2-(3-(cyclopropylmethoxy)-4-fluorophenyl)propan-2-yl)-4-(2,6-dioxopiperidin-3-yl)but-2-ene-1-sulfonamide] the figure was 26%.
For `CC(C)(NS(=O)(=O)CCC/C=C/CC1CCC(=O)NC1=O)c1ccc(F)c(OCC2CC2)c1` (stereo not shown) [Example 83, (E)-N-(2-(3-(cyclopropylmethoxy)-4-fluorophenyl)propan-2-yl)-6-(2,6-dioxopiperidin-3-yl)hex-4-ene-1-sulfonamide], the “% relative inhibition vs. positive control” value is recorded as 45%.
On the same count and under the same terms, with `CC(C)(NS(=O)(=O)CC/C=C/CC1CCC(=O)NC1=O)c1cccc(OCC2CC2)c1` (stereo not shown) [Example 84, (E)-N-(2-(3-(cyclopropylmethoxy)phenyl)propan-2-yl)-5-(2,6-dioxopiperidin-3-yl)pent-3-ene-1-sulfonamide] the figure was 22%.
On the same count and under the same terms, the value for `CC(C)(NS(=O)(=O)CCCCCNC1CCC(=O)NC1=O)c1ccc(F)c(OCC2CC2)c1` (stereo not shown) [Example 85, N-(2-(3-(cyclopropylmethoxy)-4-fluorophenyl)propan-2-yl)-5-((2,6-dioxopiperidin-3-yl)amino)pentane-1-sulfonamide] was 11%; that for `CC[C@@](O)(CNS(=O)(=O)CCCNC1CCC(=O)NC1=O)c1ccc(F)c(OCC2CC2)c1` (stereo partly drawn) [Example 86, N—((S)-2-(3-(cyclopropylmethoxy)-4-fluorophenyl)-2-hydroxybutyl)-3-((2,6-dioxopiperidin-3-yl)amino)propane-1-sulfonamide] was 6%.
On the same count and under the same terms, the value for `CC(C)(NS(=O)(=O)C/C=C/CCC1CCC(=O)NC1=O)c1ccc(F)c(OCC2CC2)c1` (stereo not shown) [Example 87, (E)-N-(2-(3-(cyclopropylmethoxy)-4-fluorophenyl)propan-2-yl)-5-(2,6-dioxopiperidin-3-yl)pent-2-ene-1-sulfonamide] was 26%; that for `CC[C@@H](NS(=O)(=O)CC/C=C/CC1CCC(=O)NC1=O)c1ccc(F)c(OCC2CC2)c1` (stereo partly drawn) [Example 88, (E)-N—((R)-1-(3-(cyclopropylmethoxy)-4-fluorophenyl)propyl)-5-(2,6-dioxopiperidin-3-yl)pent-3-ene-1-sulfonamide] was 80%; that for `CC[C@@](O)(CNS(=O)(=O)C/C=C/CC1CCC(=O)NC1=O)c1ccc(F)c(OCC2CC2)c1` (stereo partly drawn) [Example 89, (E)-N—((S)-2-(3-(cyclopropylmethoxy)-4-fluorophenyl)-2-hydroxybutyl)-4-(2,6-dioxopiperidin-3-yl)but-2-ene-1-sulfonamide] was 65%.
As for `CC[C@@](O)(CNS(=O)(=O)CCCCC1CCC(=O)NC1=O)c1ccc(F)c(OCC2CC2)c1` (stereo partly drawn) [Example 90, N—((S)-2-(3-(cyclopropylmethoxy)-4-fluorophenyl)-2-hydroxybutyl)-4-(2,6-dioxopiperidin-3-yl)butane-1-sulfonamide], the “% relative inhibition vs. positive control” value was 82%.
The same measure, in the same setting: the value for `CC[C@@H](NS(=O)(=O)CCCCCC1CCC(=O)NC1=O)c1ccc(F)c(OCC2CC2)c1` (stereo partly drawn) [Example 91, N—((R)-1-(3-(cyclopropylmethoxy)-4-fluorophenyl)propyl)-5-(2,6-dioxopiperidin-3-yl)pentane-1-sulfonamide] was 10%; that for `CC(C)(O)COc1cc(C2(NS(=O)(=O)CC/C=C/CN3CCC(=O)NC3=O)CC2)ccc1F` [Example 92, (E)-5-(2,4-dioxotetrahydropyrimidin-1(2H)-yl)-N-(1-(4-fluoro-3-(2-hydroxy-2-methylpropoxy)phenyl)cyclopropyl)pent-3-ene-1-sulfonamide] was 81%.

Source of the values: patent US11174271B2, “6-membered uracil isosteres” (CV6 Therapeutics (NI) Limited, priority 2016, dated 2021).
